Data published in patent US20140228349A1, “5,7-SUBSTITUTED-IMIDAZO[1,2-C]PYRIMIDINES” (Array BioPharma Inc., priority 2011, published 2014).

What was measured:
Format in all cases: biochemical
[1] = target: T1, JAK2 (Homo sapiens, UniProt O60674); test: JAK2 Inhibition Assay (Omnia kinase fluorescence peptide substrate); conditions: averaged IC50 ranges; 25 μM (Km app) or 1 mM ATP, 5 nM JAK2
T1 construct: purchased Invitrogen Corporation, Carlsbad, Calif; IVGN PV4288

[2] = target: T2, JAK3 (Homo sapiens, UniProt P52333); test: JAK3 Inhibition Assay (Omnia kinase fluorescence peptide substrate); conditions: averaged IC50 ranges; 10 μM (Km app) or 1 mM ATP, 2.5 nM JAK3
T2 construct: purchased Invitrogen Corporation, Carlsbad, Calif; IVGN PV4080
T2 sequence (P52333 1-1124): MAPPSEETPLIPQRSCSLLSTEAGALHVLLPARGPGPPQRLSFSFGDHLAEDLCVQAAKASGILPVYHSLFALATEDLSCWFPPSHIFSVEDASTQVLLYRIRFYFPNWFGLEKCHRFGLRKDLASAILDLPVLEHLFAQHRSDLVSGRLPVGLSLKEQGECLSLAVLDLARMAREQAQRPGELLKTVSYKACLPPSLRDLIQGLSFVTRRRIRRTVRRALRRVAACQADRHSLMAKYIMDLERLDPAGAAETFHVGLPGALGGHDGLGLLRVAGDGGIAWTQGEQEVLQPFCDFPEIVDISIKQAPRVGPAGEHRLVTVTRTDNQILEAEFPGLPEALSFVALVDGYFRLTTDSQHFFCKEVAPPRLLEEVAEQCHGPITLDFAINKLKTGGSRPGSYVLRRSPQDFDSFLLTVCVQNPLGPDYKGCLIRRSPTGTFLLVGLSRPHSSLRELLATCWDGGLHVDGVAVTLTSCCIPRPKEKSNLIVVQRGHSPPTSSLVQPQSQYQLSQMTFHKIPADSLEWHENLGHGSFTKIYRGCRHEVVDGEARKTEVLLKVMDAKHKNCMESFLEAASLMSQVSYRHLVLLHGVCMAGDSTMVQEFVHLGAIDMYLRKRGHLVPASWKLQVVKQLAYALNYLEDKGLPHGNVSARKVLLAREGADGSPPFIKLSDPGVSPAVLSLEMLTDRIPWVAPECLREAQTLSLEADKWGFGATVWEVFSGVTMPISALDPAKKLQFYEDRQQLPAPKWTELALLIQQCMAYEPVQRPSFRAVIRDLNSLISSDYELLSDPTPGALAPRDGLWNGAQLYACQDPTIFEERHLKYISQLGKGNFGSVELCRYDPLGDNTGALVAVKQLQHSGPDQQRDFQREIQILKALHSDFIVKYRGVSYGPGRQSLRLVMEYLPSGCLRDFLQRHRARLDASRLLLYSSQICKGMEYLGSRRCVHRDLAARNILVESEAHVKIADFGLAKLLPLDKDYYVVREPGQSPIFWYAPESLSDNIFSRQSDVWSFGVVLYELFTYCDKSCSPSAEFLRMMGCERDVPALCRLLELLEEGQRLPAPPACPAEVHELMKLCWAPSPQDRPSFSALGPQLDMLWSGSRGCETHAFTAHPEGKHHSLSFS
Summary of the method: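 IC50 is the concentration giving 50 percent of control on a 4-parameter logistic fit of 10-point, 3-fold dilutions from a 10 μM top dose, at 2% final DMSO. Kinetic Sox fluorescence (360/485 nm) was monitored every 50 s for 45 min. Mix: JAK3 2.5 nM, Omnia Y7 peptide 10 μM, ATP 10 μM (Km app) or 1 mM, in HEPES pH 7.4 buffer with MgCl2, Triton X-100 and DTT.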

[3] = target: T3, Human Tyk2 kinase domain (Homo sapiens, UniProt P29597); test: Tyk2 Inhibition Assay (Omnia kinase fluorescence peptide substrate); conditions: averaged IC50 ranges; 10 μM (Km app) or 1 mM ATP, 2 nM Tyk2
T3 construct: comprising amino acids 886 to 1187; His10 (10 histidine residues) (C, cleaved yes); made in house
T3 sequence (P29597 886-1187): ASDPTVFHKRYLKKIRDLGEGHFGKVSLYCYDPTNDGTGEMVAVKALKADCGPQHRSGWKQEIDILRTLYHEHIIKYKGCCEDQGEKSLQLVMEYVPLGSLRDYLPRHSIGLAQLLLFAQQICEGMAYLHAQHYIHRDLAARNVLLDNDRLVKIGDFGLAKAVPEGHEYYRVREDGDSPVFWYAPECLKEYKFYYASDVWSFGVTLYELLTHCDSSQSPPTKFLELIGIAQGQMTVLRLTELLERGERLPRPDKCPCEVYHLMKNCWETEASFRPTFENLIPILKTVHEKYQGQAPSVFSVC
Summary of the method: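 Phosphorylation of 8 μM Omnia Y12 peptide followed kinetically by Sox fluorescence, ex 360/em 485 nm, every 50 s for 45 min. Enzyme: 2 nM Tyk2 kinase domain (aa 886–1187, His tag removed); ATP at 10 μM (Km app) or 1 mM; buffer HEPES pH 7.4 with MgCl2, Triton X-100, DTT. 10-point curves up to 10 μM, IC50 from 4-parameter logistic fit.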

[4] = target: T4, JAK1 (Homo sapiens, UniProt P23458); test: JAK1 Inhibition Assay (Omnia kinase fluorescence peptide substrate); conditions: averaged IC50 ranges; 40 μM (Km app) or 1 mM ATP, 15 nM JAK1
T4 construct: purchased Invitrogen Corporation, Carlsbad, Calif; IVGN PV4775
Summary of the method: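 15 nM JAK1, 8 μM Omnia Y12 peptide, 40 μM (Km app) or 1 mM ATP; 25 mM HEPES pH 7.4, 10 mM MgCl2, 2% DMSO. Fluorescence (ex 360/em 485 nm) read every 50 s over 45 min. IC50 by 4-parameter fit of percent of control, top dose 10 μM.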

[5] = system: Tyk2, JAK1, JAK2 and JAK3; test: in vitro assays (Examples A, B, C and D) taken together; conditions: Reference Examples; statement in words
Source text: The assays described in Examples A, B, C and D for the determination of Tyk2, JAK1, JAK2 and JAK3 kinase activity, respectively, utilized the Omnia® Kinase fluorescence peptide substrate-based technology (Invitrogen). The specific components of the assay mixture are described in Examples A, B, C and D. In these assays, Mg^2+ is chelated upon phosphorylation of the Omnia peptide by the kinase to form a bridge between the chelation-enhanced fluorophore Sox and the phosphate, resulting in an increase in fluorescence emission at 485 nm when excited at […]. The reactions were therefore read at excitation 360 nm and emission was measured at 485 nm every 50 seconds for 45 minutes using a PerkinElmer EnVision Multilabel Plate Reader.
The final buffer conditions for Tyk2, JAK1, JAK2, and JAK3 assays were as follows: 25 mM HEPES, pH 7.4, 10 mM MgCl2, 0.01% Triton X-100 and 1 mM DTT.
Compounds were prepared at 50× the final concentration in DMSO by conducting 3-fold serial dilutions from a 500-μM intermediate dilution to give a 10-point dosing curve having a high dose of 10 μM. Two-μL aliquots of these were transferred to a fresh plate for a ten-fold intermediate dilution with assay buffer. Five-μL aliquots of the diluted compounds were then transferred to 20-μL of assay mixtures described in Examples A, B, C and D for a final concentration of DMSO of 2%. A standard or reference compound was typically included on each assay plate to validate that plate. For each plate, percent of control (POC) values were calculated for each well according to the following equation: […]
Compounds of Formula I were screened for their ability to inhibit Tyk2 using the general enzyme inhibition assay method, in which the assay mixture contained 10 μM (Km app) or 1 mM ATP, 8 μM Omnia® Y12 peptide (Catalog #IVGN KPZ3121C; Invitrogen Corporation, Carlsbad, Calif.) and 2 nM Tyk2 in a total volume of 20 μL. Human Tyk2 kinase domain, comprising amino acids 886 to 1187 with 10 additional histidine residues (histidine tag) on the carboxy terminus, was expressed and purified from bacculovirus in-house at Array BioPharma Inc. (Boulder, Colo.). The histidine tag was cleaved after purification using standard conditions.
Compounds of Formula I were screened for their ability to inhibit JAK1 using the general enzyme inhibition assay method, in which the assay mixture contained 40 μM (Km app) or 1 mM ATP, 8 μM Omnia® Y12 peptide (Catalog #IVGN KPZ3121C; Invitrogen Corporation, Carlsbad, Calif.) and 15 nM JAK1 in a total volume of 20 μL. JAK1 was purchased from Invitrogen Corporation, Carlsbad, Calif. (catalog #IVGN PV4775).
(§1) Compounds of Formula I were screened for their ability to inhibit JAK2 using the general enzyme inhibition assay method, in which the assay mixture contained 25 μM (Km app) or 1 mM ATP, 10 μM Omnia® Y7 peptide (Catalog #IVGN KNZ3071C, Invitrogen Corporation, Carlsbad, Calif.) and 5 nM JAK2 in a total volume of 20 μL. JAK2 was purchased from Invitrogen Corporation, Carlsbad, Calif. (catalog #IVGN PV4288).
as §1, with “JAK3” for “JAK2”, “10” for “25”, “2.5” for “5”, “PV4080).” for “PV4288).”

T1 sequence (O60674 whole entry): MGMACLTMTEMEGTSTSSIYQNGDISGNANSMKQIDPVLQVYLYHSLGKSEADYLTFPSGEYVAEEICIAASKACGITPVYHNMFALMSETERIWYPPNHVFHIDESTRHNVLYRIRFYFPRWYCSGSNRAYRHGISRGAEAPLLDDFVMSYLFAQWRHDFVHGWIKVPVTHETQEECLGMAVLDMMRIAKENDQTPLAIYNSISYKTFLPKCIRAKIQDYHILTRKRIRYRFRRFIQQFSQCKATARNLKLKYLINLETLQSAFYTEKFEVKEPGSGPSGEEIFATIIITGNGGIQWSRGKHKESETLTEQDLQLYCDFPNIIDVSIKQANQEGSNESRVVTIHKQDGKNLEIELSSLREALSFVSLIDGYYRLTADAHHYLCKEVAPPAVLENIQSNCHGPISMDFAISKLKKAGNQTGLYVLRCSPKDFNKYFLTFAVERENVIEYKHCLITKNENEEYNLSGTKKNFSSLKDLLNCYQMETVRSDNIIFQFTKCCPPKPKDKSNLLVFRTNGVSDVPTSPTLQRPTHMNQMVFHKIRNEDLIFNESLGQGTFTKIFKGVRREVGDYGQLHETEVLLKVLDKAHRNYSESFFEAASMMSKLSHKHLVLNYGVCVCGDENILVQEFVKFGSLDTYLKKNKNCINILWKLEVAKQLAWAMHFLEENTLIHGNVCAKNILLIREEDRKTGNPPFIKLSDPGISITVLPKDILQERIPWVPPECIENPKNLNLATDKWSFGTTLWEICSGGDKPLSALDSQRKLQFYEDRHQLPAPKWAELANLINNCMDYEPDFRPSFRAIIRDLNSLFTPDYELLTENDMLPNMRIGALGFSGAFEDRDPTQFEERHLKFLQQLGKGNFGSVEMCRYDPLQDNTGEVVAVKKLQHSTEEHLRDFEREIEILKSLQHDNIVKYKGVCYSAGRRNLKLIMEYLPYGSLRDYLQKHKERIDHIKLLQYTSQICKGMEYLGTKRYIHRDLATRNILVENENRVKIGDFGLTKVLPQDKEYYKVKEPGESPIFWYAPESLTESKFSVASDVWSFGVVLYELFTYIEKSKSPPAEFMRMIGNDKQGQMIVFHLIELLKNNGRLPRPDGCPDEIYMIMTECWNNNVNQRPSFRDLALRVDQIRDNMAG
T4 sequence (P23458 whole entry): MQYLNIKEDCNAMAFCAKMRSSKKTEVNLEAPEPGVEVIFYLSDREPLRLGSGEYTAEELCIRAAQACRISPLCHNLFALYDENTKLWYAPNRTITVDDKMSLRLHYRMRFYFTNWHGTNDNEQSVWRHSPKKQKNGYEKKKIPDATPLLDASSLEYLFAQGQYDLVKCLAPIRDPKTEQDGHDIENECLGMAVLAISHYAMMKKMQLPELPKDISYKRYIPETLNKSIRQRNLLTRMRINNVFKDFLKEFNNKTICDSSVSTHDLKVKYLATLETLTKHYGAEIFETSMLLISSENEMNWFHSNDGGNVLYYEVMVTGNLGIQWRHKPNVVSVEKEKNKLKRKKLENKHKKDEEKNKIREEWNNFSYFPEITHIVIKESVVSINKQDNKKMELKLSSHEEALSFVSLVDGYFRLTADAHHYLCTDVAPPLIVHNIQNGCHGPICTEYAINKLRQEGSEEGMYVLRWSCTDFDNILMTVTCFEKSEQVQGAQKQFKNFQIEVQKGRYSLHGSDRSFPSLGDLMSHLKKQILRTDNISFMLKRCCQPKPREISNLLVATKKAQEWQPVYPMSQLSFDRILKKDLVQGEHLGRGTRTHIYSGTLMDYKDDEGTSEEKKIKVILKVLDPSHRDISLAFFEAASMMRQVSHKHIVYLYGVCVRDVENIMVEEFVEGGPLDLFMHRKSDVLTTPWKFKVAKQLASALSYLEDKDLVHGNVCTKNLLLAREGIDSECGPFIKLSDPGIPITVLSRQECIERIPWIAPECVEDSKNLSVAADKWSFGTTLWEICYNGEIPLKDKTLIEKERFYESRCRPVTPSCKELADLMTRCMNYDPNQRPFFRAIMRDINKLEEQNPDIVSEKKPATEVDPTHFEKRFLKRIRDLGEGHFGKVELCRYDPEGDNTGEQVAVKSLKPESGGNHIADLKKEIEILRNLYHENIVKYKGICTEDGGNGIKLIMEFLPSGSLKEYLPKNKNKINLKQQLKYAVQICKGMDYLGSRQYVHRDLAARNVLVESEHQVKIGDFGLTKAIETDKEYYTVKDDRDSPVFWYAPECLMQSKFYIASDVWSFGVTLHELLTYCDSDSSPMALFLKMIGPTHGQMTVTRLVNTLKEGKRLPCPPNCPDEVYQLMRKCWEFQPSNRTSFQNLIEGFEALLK

Compound	IC50 [1] [µM]	IC50 [2] [µM]	IC50 [3] [µM]	IC50 [4] [µM]	activity in the in vitro assays [5]
CN(C)C(=O)N1CC(CCF)(n2cc(-c3nc(-c4cnn(C)c4)cc4nccn34)cn2)C1 [Example 93, 3-(2-fluoroethyl)-N,N-dimethyl-3-(4-(7-(1-methyl-1H-pyrazol-4-yl)imidazo[1,2-c]pyrimidin-5-yl)-1H-pyrazol-1-yl)azetidine-1-carboxamide]	> 1	> 1	> 1	> 1	weakly active
Cn1cc(-c2cc3nccn3c(-c3cnn(C4(CCF)CN(C(=O)C5CC5)C4)c3)n2)cn1 [Example 97, cyclopropyl(3-(2-fluoroethyl)-3-(4-(7-(1-methyl-1H-pyrazol-4-yl)imidazo[1,2-c]pyrimidin-5-yl)-1H-pyrazol-1-yl)azetidin-1-yl)methanone]	> 1	> 1	> 1	> 1	weakly active
COCCC1(n2cc(-c3nc(-c4cnn(C)c4)cc4nccn34)cn2)CN(C(=O)N(C)C)C1 [Example 99, 3-(2-methoxyethyl)-N,N-dimethyl-3-(4-(7-(1-methyl-1H-pyrazol-4-yl)imidazo[1,2-c]pyrimidin-5-yl)-1H-pyrazol-1-yl)azetidine-1-carboxamide]	> 1	> 1	> 1	> 1	weakly active
